Laboratory results reported in PubChem BioAssay AID1963445 (Molecular Pharmacology Branch, DTP, NCI, 2024).

System: MCF7 complex spheroid growth, % test/control
Assay: Anticancer human tumor MCF7 cell line growth inhibition [Asc];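 also: spheroids exposed to compounds for 7 days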;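 as to viability, T/C: 100% = DMSO vehicle control wells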
Conditions: for viability, T/C: stronger effect = lower value
In short: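 Complex spheroids combining tumor cells with HUVEC endothelial cells and human MSCs, at 37 degrees C, 5% CO2; agents tested alone or combined, half-log dilutions from at or near clinical Cmax, or 10 microM if Cmax unknown.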

Question: For `O=C(c1cc(Cc2n[nH]c(=O)c3ccccc23)ccc1F)N1CCN(C(=O)C2CC2)CC1` + CCN1C(C(=O)NC23CCC(C(=O)O)(CC2)CC3)C(c2cccc(Cl)c2F)C2(C(=O)Nc3cc(Cl)ccc32)C12CCCCC2, which IC50 (curve of first compound, second compound 0.00949 µM) is on record?
Answer: Its IC50 is over 10000 nM.

Question: And the IC50 (curve of first compound, second compound 0.03 µM)?
Answer: The IC50 was over 10000 nM.

Question: What about the IC50 (curve of first compound, second compound 0.0949 µM) of the same compound?
Answer: The IC50 was under 31.6 nM.

Question: And the IC50 (curve of first compound, second compound 0.3 µM)?
Answer: The IC50 was under 31.6 nM.

Question: What about the IC50 (curve of first compound, second compound 0.949 µM) of the same compound?
Answer: Its IC50 is under 31.6 nM.

Question: What about the IC50 (curve of first compound, second compound 3 µM) of the same compound?
Answer: The IC50 was under 31.6 nM.

Question: And the viability, T/C (second compound 0.00949 µM, first compound 0.0316 µM)?
Answer: Its viability, T/C is 133%.

Question: And the viability, T/C (second compound 0.00949 µM, first compound 0.1 µM)?
Answer: Its viability, T/C is 96.8%.

Question: What about the viability, T/C (second compound 0.00949 µM, first compound 0.316 µM) of the same compound?
Answer: The viability, T/C was 107%.

Question: And the viability, T/C (second compound 0.00949 µM, first compound 1 µM)?
Answer: Its viability, T/C is 106%.

Question: And the viability, T/C (second compound 0.00949 µM, first compound 3.16 µM)?
Answer: Its viability, T/C is 92.3%.

Question: What about the viability, T/C (second compound 0.00949 µM, first compound 10 µM) of the same compound?
Answer: The viability, T/C was 73%.

Question: And the viability, T/C (second compound 0.03 µM, first compound 0.0316 µM)?
Answer: The viability, T/C was 85.6%.

Question: And the viability, T/C (second compound 0.03 µM, first compound 0.1 µM)?
Answer: Its viability, T/C is 81.5%.

Question: And the viability, T/C (second compound 0.03 µM, first compound 0.316 µM)?
Answer: The viability, T/C was 87%.

Question: And the viability, T/C (second compound 0.03 µM, first compound 1 µM)?
Answer: Its viability, T/C is 86%.

Question: What about the viability, T/C (second compound 0.03 µM, first compound 3.16 µM) of the same compound?
Answer: Its viability, T/C is 74.2%.

Question: And the viability, T/C (second compound 0.03 µM, first compound 10 µM)?
Answer: The viability, T/C was 62.2%.

Question: What about the viability, T/C (second compound 0.0949 µM, first compound 0.0316 µM) of the same compound?
Answer: Its viability, T/C is 46.7%.

Question: And the viability, T/C (second compound 0.0949 µM, first compound 0.1 µM)?
Answer: The viability, T/C was 47.4%.

Question: And the viability, T/C (second compound 0.0949 µM, first compound 0.316 µM)?
Answer: Its viability, T/C is 51.4%.

Question: What about the viability, T/C (second compound 0.0949 µM, first compound 1 µM) of the same compound?
Answer: The viability, T/C was 45.5%.

Question: And the viability, T/C (second compound 0.0949 µM, first compound 3.16 µM)?
Answer: The viability, T/C was 38.9%.

Question: And the viability, T/C (second compound 0.0949 µM, first compound 10 µM)?
Answer: The viability, T/C was 44.5%.

Question: What about the viability, T/C (second compound 0.3 µM, first compound 0.0316 µM) of the same compound?
Answer: Its viability, T/C is 34.3%.

Question: What about the viability, T/C (second compound 0.3 µM, first compound 0.1 µM) of the same compound?
Answer: The viability, T/C was 30.3%.

Question: And the viability, T/C (second compound 0.3 µM, first compound 0.316 µM)?
Answer: Its viability, T/C is 32.8%.

Question: And the viability, T/C (second compound 0.3 µM, first compound 1 µM)?
Answer: Its viability, T/C is 30.6%.

Question: And the viability, T/C (second compound 0.3 µM, first compound 3.16 µM)?
Answer: Its viability, T/C is 29.4%.

Question: And the viability, T/C (second compound 0.3 µM, first compound 10 µM)?
Answer: Its viability, T/C is 29%.

Question: What about the viability, T/C (second compound 0.949 µM, first compound 0.0316 µM) of the same compound?
Answer: The viability, T/C was 21%.

Question: And the viability, T/C (second compound 0.949 µM, first compound 0.1 µM)?
Answer: Its viability, T/C is 22.7%.

Question: What about the viability, T/C (second compound 0.949 µM, first compound 0.316 µM) of the same compound?
Answer: Its viability, T/C is 21.5%.

Question: And the viability, T/C (second compound 0.949 µM, first compound 1 µM)?
Answer: Its viability, T/C is 21.6%.

Question: And the viability, T/C (second compound 0.949 µM, first compound 3.16 µM)?
Answer: Its viability, T/C is 25.7%.

Question: What about the viability, T/C (second compound 0.949 µM, first compound 10 µM) of the same compound?
Answer: The viability, T/C was 19.6%.

Question: And the viability, T/C (second compound 3 µM, first compound 0.0316 µM)?
Answer: The viability, T/C was 13.7%.

Question: And the viability, T/C (second compound 3 µM, first compound 0.1 µM)?
Answer: Its viability, T/C is 16.2%.

Question: And the viability, T/C (second compound 3 µM, first compound 0.316 µM)?
Answer: Its viability, T/C is 14.4%.

Question: And the viability, T/C (second compound 3 µM, first compound 1 µM)?
Answer: Its viability, T/C is 14.9%.

Question: And the viability, T/C (second compound 3 µM, first compound 3.16 µM)?
Answer: The viability, T/C was 18.9%.

Question: And the viability, T/C (second compound 3 µM, first compound 10 µM)?
Answer: Its viability, T/C is 15.9%.

Question: For `Cc1c(S(C)(=O)=O)c(-c2cc(F)cc(N3CCN(c4ccc(NS(=O)(=O)c5ccc(NC(CCN6CCC(C(=O)OCCCP(=O)(O)O)CC6)CSc6ccccc6)c(S(=O)(=O)C(F)(F)F)c5)cc4)CC3)c2)c(-c2ccc(Cl)cc2)n1C(C)C` (stereo not given), which viability, T/C (compound 0.0316 µM) is on record?
Answer: The viability, T/C was 90.5% [middle of 7 runs].

Question: What about the viability, T/C (compound 10 µM) of the same compound?
Answer: The viability, T/C was 166% [middle of 7 runs].

Question: And the IC50 (compound alone, run of 11/07/2022)?
Answer: Its IC50 is over 10000 nM.
